Assay results as given in US12193456B2, “Early life nutrition” (DSM IP ASSETS B.V., priority 2019, dated 2025).

Experiments:
[1] = Calf physiological parameters (bodyweight, average daily gain); format: in vivo, calves (Holstein, Montbéliarde, Holstein×Montbéliarde); conditions: for effect on host animal performance (in words): early life treatment, birth to week 14
Protocol: (§1) At birth 18 female Holstein (n=12), Montbéliarde (n=4) and Holstein×Montbéliarde (n=2) calves were randomly assigned to either a treatment group (3 mg 3-NOP (active)/kg BW) or control group (placebo supplement i.e. without 3-NOP but with silica and propylene glycol). 3-NOP was supplemented in the form of a 3-NOP powdered formulation (10 wt.-% of 3-NOP admixed with silica and propylene glycol) such that breed distribution and birthweight were balanced across groups. Treatment was administered daily from birth until three weeks post-weaning (week 14) (admixed in a small volume of water and delivered by an oral gavage). Calves were weighed weekly. Milk and concentrate intake prior to weaning was recorded using automated feeders. Animals were group housed in a single pen following weaning. Samples of rumen liquid were collected at week 1, 4, 11, 14, 23 and 60 weeks of life and DNA from these samples of rumen liquid content were extracted and subjected to Illumina MiSeq sequencing. Methane emissions from the calves were measured using the GreenFeed system (C-Lock, Rapid City, SD USA) from weaning at week 11 to week 23 and later from week 56 to 60 of life.

calves = test: Methane emissions from calves measured using the GreenFeed system after early-life supplementation; format: in vivo, calves (Holstein, Montbéliarde, Holstein×Montbéliarde); conditions: for methane emissions: n = 10
Description: The methane emissions respectively methane reductions as referred to herein can be measured in individual animals in metabolic chambers by methods known in the art (Grainger et al., 2007 J. Dairy Science; 90: 2755-2766). Moreover, it can also be assessed at barn level by an emerging technology using laser beam (McGinn et al., 2009, Journal of Environ-mental Quality; 38: 1796-1802). Alternatively, methane produced by a ruminant can also be assessed with the GreenFeed system (C-Lock, Rapid City, SD USA), which method is preferred.
as §1

For `O=[N+]([O-])OCCCO` [3-nitrooxypropanol, 3-Nitrooxypropanol], the “Bodyweight (BW) of calves” value ([1]; age 0 weeks, treatment group n = 10) was 41.6 kg, the “Bodyweight (BW) of calves” value ([1]; age 11 weeks, treatment group n = 10) was 102.2 kg and the “Bodyweight (BW) of calves” value ([1]; age 14 weeks, treatment group n = 10) was 119.5 kg. For the same molecule, the “Bodyweight (BW) of calves” value ([1]; age 17 weeks, treatment group n = 10) was 134.9 kg, the “Bodyweight (BW) of calves” value ([1]; age 20 weeks, treatment group n = 10) was 151.8 kg and the “Bodyweight (BW) of calves” value ([1]; age 23 weeks, treatment group n = 10) was 189.5 kg. For the same molecule, the “Bodyweight (BW) of calves” value ([1]; age 56 to 60 weeks, treatment group n = 10) was 339 kg, the “effect on host animal performance (in words)” value [1] was “no detrimental effects” and the “effect on host animal performance (in words)” value ([1]; listed as 3-NOP) was “no adverse effect on performance”. The “Average Daily Gain (ADG)” value ([1]; from week 0 to 23 weeks of life, treatment group n = 10) was 0.79 kg/day, the “methane emissions of treated animals (in words)” value (calves; after 60 weeks of age, supplementation from birth until 14 weeks of age) was “lower methane emissions” and the methane emissions (calves; age 11 weeks (weaning), during daily supplementation, 3 mg 3-NOP/kg BW oral gavage from birth) was 45.0 g/day. The methane emissions (calves; age 14 weeks, end of daily supplementation, 3 mg 3-NOP/kg BW oral gavage from birth) was 63.4 g/day, the methane emissions (calves; age 17 weeks, no supplementation (stopped week 14)) was 68.2 g/day and the methane emissions (calves; age 20 weeks, no supplementation (stopped week 14)) was 88.9 g/day. For the same molecule, the methane emissions (calves; age 23 weeks, no supplementation (stopped week 14)) was 97.13 g/day, the methane emissions (calves; age 56 to 60 weeks, no supplementation (stopped week 14)) was 193.0 g/day and the “overall reduction in methane emissions (g CH4/d)” value (calves; throughout the post-weaning period (week 11 to 23), vs control, P=0.03, treatment ceased three weeks post-weaning) was 11.6%. The “overall reduction in methane emissions” value (calves; weeks 56 to 60 of life, vs control, P<0.05, no supplementation since week 14) was “about 19%”.
